Consider two compounds from ChEMBL document CHEMBL3886771, “Cyclopropanecarboxamido-substitute aromatic compounds as anti-tumor agents” (2016).

This test addresses Vascular endothelial growth factor receptor 2 (Homo sapiens, UniProt P35968). As to the kind of experiment: Inhibition Assay: [Experimental method]: Use Lance@Ultra Ulight™-TK assay kit from PerKinElmer to evaluate the inhibitory activity of compounds at KDR kinase. [Instrument]: PerKinElmer's ENVISION plate reader. [Materials]: Optiplate-384 well plate (PerKinElmer), kinase buffer (50 mM Hepes pH7.5, 0.25 mM EGTA, 2 mM DTT, 0.01% Tween 20, 10 mM Mg2+, 0.5 mM Mn2+), KDR kinase (790-1356 AA, Crown Bioscience), KDR kinase substrate (PerKinElmer catalogue # TRF0127-M), Lance@Eu-W1024-anti-phosphotyrosine (PT66) (PerKinElmer, catalogue #AD0068), ATP (Invitrogen), DMSO (Sigma, catalogue #34869), purified water (Millipore, type: Milli-Q). [Study conditions]: Mix KDR (final concentration: 20 nM) and compound (final DMSO: 0.5%), pre-incubate for 20 min at 30° C.; then add ATP (final concentration: 90 μM) and the substrate (final concentration 50 μM). React for 2 hrs at 30° C. After the reaction, add antibody and reaction for 60 min at 30° C. Read the plate (615 nm, 665 nm), calculate the ratio of the value at 665 nm vs 615 nm and analyze the data.

Vascular endothelial growth factor receptor 2, sequence (P35968 whole entry, the tested form may be a part): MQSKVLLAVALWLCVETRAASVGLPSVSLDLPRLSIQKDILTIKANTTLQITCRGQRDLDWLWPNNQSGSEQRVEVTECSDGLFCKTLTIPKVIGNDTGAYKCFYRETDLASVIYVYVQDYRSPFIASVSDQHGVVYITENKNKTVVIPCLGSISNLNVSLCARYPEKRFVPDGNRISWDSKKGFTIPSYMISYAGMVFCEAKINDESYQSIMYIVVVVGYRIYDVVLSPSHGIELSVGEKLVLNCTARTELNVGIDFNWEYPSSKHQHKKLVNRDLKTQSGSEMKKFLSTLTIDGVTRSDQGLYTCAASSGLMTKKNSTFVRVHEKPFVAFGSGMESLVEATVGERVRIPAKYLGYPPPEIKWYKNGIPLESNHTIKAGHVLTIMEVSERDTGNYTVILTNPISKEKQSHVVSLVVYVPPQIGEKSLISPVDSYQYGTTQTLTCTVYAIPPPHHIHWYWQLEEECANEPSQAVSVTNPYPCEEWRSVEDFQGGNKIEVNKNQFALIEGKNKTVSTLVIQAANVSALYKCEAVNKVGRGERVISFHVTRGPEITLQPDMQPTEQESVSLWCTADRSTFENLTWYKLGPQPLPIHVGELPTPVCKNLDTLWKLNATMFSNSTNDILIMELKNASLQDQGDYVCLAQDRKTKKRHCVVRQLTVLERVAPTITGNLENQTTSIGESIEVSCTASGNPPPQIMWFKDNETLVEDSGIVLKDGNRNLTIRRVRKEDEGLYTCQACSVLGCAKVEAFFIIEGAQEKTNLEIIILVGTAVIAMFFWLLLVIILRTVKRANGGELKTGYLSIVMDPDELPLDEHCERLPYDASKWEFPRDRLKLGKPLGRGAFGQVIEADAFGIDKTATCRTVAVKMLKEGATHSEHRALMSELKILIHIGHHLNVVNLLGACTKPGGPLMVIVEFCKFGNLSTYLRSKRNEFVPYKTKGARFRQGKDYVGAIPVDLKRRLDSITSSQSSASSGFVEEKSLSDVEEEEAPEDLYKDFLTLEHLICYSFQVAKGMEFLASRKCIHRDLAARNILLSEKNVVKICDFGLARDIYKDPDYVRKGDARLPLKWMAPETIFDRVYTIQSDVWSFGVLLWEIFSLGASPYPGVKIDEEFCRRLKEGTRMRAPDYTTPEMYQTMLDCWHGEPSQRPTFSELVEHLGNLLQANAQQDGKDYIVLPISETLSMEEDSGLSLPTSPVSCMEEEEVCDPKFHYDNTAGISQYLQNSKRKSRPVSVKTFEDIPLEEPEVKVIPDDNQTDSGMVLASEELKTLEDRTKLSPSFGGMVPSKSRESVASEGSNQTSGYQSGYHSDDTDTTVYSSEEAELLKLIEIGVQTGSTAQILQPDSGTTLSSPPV

Take `O=C(Nc1ccc(Oc2ccnc(NC(=O)C3CC3)c2)c(F)c1)Nc1ccc(Cl)c(C(F)(F)F)c1`: the IC50 is 11.5 nM.

As to `CC(c1cc(NC(=O)Nc2ccc(Oc3ccnc(NC(=O)C4CC4)c3)c(F)c2)cc(C(F)(F)F)c1)N1CCNCC1` (configuration not stated), the IC50 was 26.6 nM.
